Data from patent publication US9090627B2 (priority 2012, dated 2015).

Tests used:
[1] = test system: mice; settings: mouse, in vivo; cited from earlier work
[2] = rat
[3] = human

Row | Compound | LD50 in mice [1] | Skin penetration behavior (layer reached) [2] | Change in penetration with application time [3]
1 | Batrachotoxin | 2 µg/kg |  | 
2 | CCN1C[C@]2(COC)[C@H](O)C[C@H](OC)[C@@]34[C@@H]5C[C@@]6(O)[C@H](OC(=O)c7ccccc7)[C@@H]5[C@@](OC(C)=O)([C@@H]([C@H](OC)[C@H]23)[C@@H]14)[C@@H](O)[C@@H]6OC [aconitine] |  | Complete skin penetration | increased penetration occurring at 4 and 10 hours of application in comparison to 1 hour
